The text below walks through data of patent US4499088A, “Cephem compounds” (Fujisawa Pharmaceutical Co., Ltd., priority 1983, dated 1985).

Series [1] concerns Proteus mirabilis 18. Description: Minimal inhibitory concentration, two-fold agar-plate dilution method. Type of series: cell-based. To be noted: HI-agar, 37° C., 20 hours. The procedure: (§1) (A) Minimal inhibitory concentration (1) Test Method In vitro antibacterial activity was determined by the two-fold agar-plate dilution method as described below. One loopful of an overnight culture of each test strain in Trypticase-soy broth (10^8 viable cells per ml) was streaked on heart infusion agar (HI-agar) containing graded concentrations of representative test compound, and the minimal inhibitory concentration (MIC) was expressed in terms of μg/ml after incubation at 37° C. for 20 hours.

For series [2], the system named is Proteus vulgaris 2. The series is described as above. It is filed as cell-based. The note with it: HI-agar, 37° C., 20 hours. The procedure:
as §1

Series [3] can be described thus: Urinary excretion. It is filed as in vivo. The note with it: rat; rats, oral administration of 100 mg/kg, urine 0 to 6 and 6 to 24 hours, bioassay; read-out: Urinary recovery in 24 hours (%).
Procedure: Urine of rats was collected with a urine collector at 0 to 6, and 6 to 24 hours after oral administration of 100 mg/kg of the test antibiotic. The antibiotic levels in the urine samples were bioassayed with the standard solution prepared with M/15 phosphate buffer (pH 7.0) and the urinary recovery in 24 hours was calculated.
The nature of series [4]: in vivo. To be noted: rat, po, 100 mg/kg.
Procedure: Rats anesthetized with pentobarbital were fixed in supine position, and a polyethylene cannula was inserted into the bile duct. Bile samples were collected at 0 to 3, 3 to 6, and 6 to 24 hours after oral administration of 100 mg/kg of the test antibiotic. The antibiotic levels in the bile samples were bioassayed with the standard solutions prepared with M/15 phosphate buffer (pH 7.0) and the biliary recovery in 24 hours were calculated.

By MIC is commonly meant the smallest concentration in the dilution series that meets the test's criterion for growth inhibition. On to `O=C(O)CO/N=C(\C(=O)NC1C(=O)N2C(C(=O)O)=C(CSc3ccc4nnnn4n3)CSC12)c1cscn1` (stereo not drawn) [Test Compound (1), 7-[2-Carboxymethoxyimino-2-(4-thiazolyl)acetamido]-3-(tetrazolo[1,5-b]pyridazin-6-yl)thiomethyl-3-cephem-4-carboxylic acid (syn isomer)], for which the MIC in series [1] and in series [2] was less than 0.025 µg/mL in each case. For the same compound, the figures for the dose excreted at 24 h in series [3] and in series [4] were 20.2% and 8.97%, respectively.
